Measurements published in PMC2928581 (Nature communications, 2010).

Target: TRPML1 (ML1) (Mus musculus, UniProt Q99J21)
Assay: whole-endolysosome patch clamp, current activation
Format: biochemical

Chain of TRPML1 (ML1) (Q99J21 whole entry): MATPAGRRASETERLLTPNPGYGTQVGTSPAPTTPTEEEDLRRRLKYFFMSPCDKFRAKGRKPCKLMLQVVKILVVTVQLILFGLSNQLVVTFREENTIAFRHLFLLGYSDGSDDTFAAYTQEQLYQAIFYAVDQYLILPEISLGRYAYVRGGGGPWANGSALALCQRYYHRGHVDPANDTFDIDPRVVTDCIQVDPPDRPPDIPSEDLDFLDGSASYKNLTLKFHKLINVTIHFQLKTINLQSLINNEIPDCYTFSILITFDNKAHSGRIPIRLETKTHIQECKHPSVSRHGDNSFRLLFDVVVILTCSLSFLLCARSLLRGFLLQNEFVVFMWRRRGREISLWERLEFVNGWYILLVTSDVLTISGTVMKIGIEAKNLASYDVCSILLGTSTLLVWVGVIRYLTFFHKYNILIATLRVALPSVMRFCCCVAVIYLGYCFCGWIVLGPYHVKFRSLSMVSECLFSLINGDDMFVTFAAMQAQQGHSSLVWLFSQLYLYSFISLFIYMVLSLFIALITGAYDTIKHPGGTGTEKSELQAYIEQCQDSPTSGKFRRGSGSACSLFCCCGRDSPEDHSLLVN

- EC50: 0.048 ± 0.014 µM
Compound: CCCCCCCC(=O)OC[C@H](COP(=O)(O)O[C@@H]1[C@H](O)[C@H](OP(=O)(O)O)[C@@H](O)[C@H](OP(=O)(O)O)[C@H]1O)OC(=O)CCCCCCC [PI(3,5)P2 (diC8)]
